Columns and labels:
[1] = assay type: physicochemical; details: for thermodynamic stability of polymorph: solid form, comparison among observed polymorphs; for interconversion into other polymorphs: under the conditions tested
Text: Thus, Form IV in solid form has the advantage of longer-term shelf life without interconversion into another crystalline form.

[2] = Drug release from crystalline powders suspended in PBS with 50% FBS, quantified by HPLC over time; assay type: physicochemical; details: crystalline powder suspended in PBS with 50% FBS, FIG. 12
Text: FIG. 12 is a graph depicting the release of Compound 1 from crystalline powders suspended in phosphate buffered saline (PBS) with 50% fetal bovine serum (FBS). The release of Compound 1 from the different crystalline forms was quantified by HPLC over time as described in Example 10.
Form I/II (mixture) and Form IV of Compound 1 were formed from acetonitrile and ethanol respectively. The crystalline powders were suspended in phosphate buffered saline (PBS) with 50% fetal bovine serum (FBS) and drug release from the different forms was quantified by HPLC over time (see FIG. 12).

[3] = Solubility in organic solvents; assay type: physicochemical
Text: This observation has implications for coating applications as making high concentration coating solutions (e.g., for coating a surface by dip coating or spray coating a solution of Compound 1 onto the surface) will be much more practical from Form II than from Form IV.

[4] = Solubility in 90% acetonitrile-10% water as a function of temperature; assay type: physicochemical; details: Form II vs Form IV, FIG. 15
Protocol: FIG. 15 is a graph depicting the difference in the solubilities (mg/mi) of Form II and Form IV in […] as a function of temperature.
The solubility of Form II and Form IV were measured in 90% acetonitrile-10% water as a function of temperature (see FIG. 15).

[5] = Differential scanning calorimetry (behaviour on heating); assay type: physicochemical; details: DSC, FIG. 14
[6] = Drug release from heat-molded glassy pellets in PBS, 1% FBS in PBS or 100% FBS at 37° C. (HPLC); assay type: physicochemical; details: heat-molded pellets in the glassy state, about 1 mm x 1 mm
Protocol: Heat-molded pellets from Compound 1 (˜1 mm×1 mm) were then placed in 20 mL glass vials and 2 mL of release buffer (either 100% phosphate buffered saline (PBS), 1% fetal bovine serum (FBS) in PBS, or 100% FBS) was added. Samples were incubated at 37° C. on a shaker rotating at 115 rpm. After 1 day, 3 days, 7 days, and subsequently in alternating 3 and 4 day intervals (i.e., 1, 3, 7, 10, 14 days etc.), release buffer was sampled directly (PBS) or syringe filtered, proteins were precipitated with acetonitrile, and drug release products were extracted. The samples were analyzed by high performance liquid chromatography (HPLC) to quantify drug products.

Structure (SMILES)	drug release from the crystalline form over time [2]	thermodynamic stability of polymorph [1]	interconversion into other polymorphs [1]	other results
C[C@@H]1C[C@H]2[C@@H]3CCC4=CC(=O)C=C[C@]4(C)[C@@]3(F)[C@@H](O)C[C@]2(C)[C@@]1(O)C(=O)COC(=O)OCCOCCOCCOC(=O)OCC(=O)[C@@]1(O)[C@H](C)C[C@H]2[C@@H]3CCC4=CC(=O)C=C[C@]4(C)[C@@]3(F)[C@@H](O)C[C@@]21C [Form VIII]				conversion to another form by PXRD ([1]; after 14 days at room temperature and/or cooling at 0° C. for 14 days): conversion to Form IV
C[C@@H]1C[C@H]2[C@@H]3CCC4=CC(=O)C=C[C@]4(C)[C@@]3(F)[C@@H](O)C[C@]2(C)[C@@]1(O)C(=O)COC(=O)OCCOCCOCCOC(=O)OCC(=O)[C@@]1(O)[C@H](C)C[C@H]2[C@@H]3CCC4=CC(=O)C=C[C@]4(C)[C@@]3(F)[C@@H](O)C[C@@]21C [Form I/II]	faster release compared to Form IV			
C[C@@H]1C[C@H]2[C@@H]3CCC4=CC(=O)C=C[C@]4(C)[C@@]3(F)[C@@H](O)C[C@]2(C)[C@@]1(O)C(=O)COC(=O)OCCOCCOCCOC(=O)OCC(=O)[C@@]1(O)[C@H](C)C[C@H]2[C@@H]3CCC4=CC(=O)C=C[C@]4(C)[C@@]3(F)[C@@H](O)C[C@@]21C [Form II]		high thermodynamic stability	not observed to convert to Form IV	solubility in organic solvents, comparison in words ([3]; Form II vs Form IV): much more soluble in organic solvents than Form IV; solubility as a function of temperature [4]: higher solubility
C[C@@H]1C[C@H]2[C@@H]3CCC4=CC(=O)C=C[C@]4(C)[C@@]3(F)[C@@H](O)C[C@]2(C)[C@@]1(O)C(=O)COC(=O)OCCOCCOCCOC(=O)OCC(=O)[C@@]1(O)[C@H](C)C[C@H]2[C@@H]3CCC4=CC(=O)C=C[C@]4(C)[C@@]3(F)[C@@H](O)C[C@@]21C [Form IV]	slower dissolution	most thermodynamically stable polymorph observed	not seen to convert into any other polymorphs	solubility in organic solvents relative to Form II ([3]; acetonitrile, ethanol, tetrahydrofuran, 2-methyl tetrahydrofuran, isobutyl acetate, acetone, butyl acetate, ethyl acetate, isopropyl acetate, methanol): ca. 10 fold; behaviour on heating (thermal stability) [5]: decomposes on heating
C[C@@H]1C[C@H]2[C@@H]3CCC4=CC(=O)C=C[C@]4(C)[C@@]3(F)[C@@H](O)C[C@]2(C)[C@@]1(O)C(=O)COC(=O)OCCOCCOCCOC(=O)OCC(=O)[C@@]1(O)[C@H](C)C[C@H]2[C@@H]3CCC4=CC(=O)C=C[C@]4(C)[C@@]3(F)[C@@H](O)C[C@@]21C [Compound 1, dexamethasone-triethylene glycol-dexamethasone]				mechanism of drug release from pellet [6]: Release Drug Through Surface Erosion from an Intact Pellet

Source: patent US12473326B2, “Crystalline forms of dexamethasone dimers and uses thereof” (Ripple Therapeutics Corporation, priority 2019, dated 2025)
